Source: the supplement of paper PMC10307832

Columns and labels:
Experiment in all cases: relative viability (nuclei count vs DMSO), 5 days (fraction); higher = more cells survive
[1] = compound: CC1=CC(=NN1)NC2=CC(=NC(=N2)/C=C/C3=CC=CC=C3)N4CCN(CC4)C + C[C@]1(O)C[C@@H](c2nc(-c3ccc4ccc(-c5ccccc5)nc4c3)c3c(N)nccn32)C1 [Linsitinib] (partner 1 µM)
Procedure, shortened: (§1)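 Medians of duplicate plates are given as relative viability. That measure is the nuclei count in treated wells divided by the count in vehicle wells. Counts were taken on 4× images of lung cancer cell lines in 1536-well plates, 5 days after pin-tool dosing the day after seeding with one drug alone or a fixed anchor-drug dose plus five library-drug doses (not always all listed) in √10 steps.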

[2] = compound: CC1=CC(=NN1)NC2=CC(=NC(=N2)/C=C/C3=CC=CC=C3)N4CCN(CC4)C + Cc1nc(NC(=O)N2CCC[C@H]2C(N)=O)sc1-c1ccnc(C(C)(C)C(F)(F)F)c1 [Alpelisib] (partner 2 µM)
Procedure, shortened: as §1

Obatoclax + Navitoclax = compound: COC1=CC(c2cc3ccccc3[nH]2)=N/C1=C\c1[nH]c(C)cc1C [Obatoclax] + CC1(C)CCC(c2ccc(Cl)cc2)=C(CN2CCN(c3ccc(C(=O)NS(=O)(=O)c4ccc(N[C@H](CCN5CCOCC5)CSc5ccccc5)c(S(=O)(=O)C(F)(F)F)c4)cc3)CC2)C1 [Navitoclax] (partner 0.5 µM)
Procedure, shortened: as §1

Obatoclax + Vorinostat = compound: COC1=CC(c2cc3ccccc3[nH]2)=N/C1=C\c1[nH]c(C)cc1C [Obatoclax] + O=C(CCCCCCC(=O)Nc1ccccc1)NO [Vorinostat] (partner 1 µM)
Procedure, shortened: as §1

Cell Line | relative viability ([1]; first compound 0.08 µM) | relative viability ([1]; first compound 0.253 µM) | relative viability ([1]; first compound 0.8 µM) | relative viability ([1]; first compound 2.53 µM) | relative viability ([1]; first compound 8 µM) | relative viability ([2]; first compound 0.08 µM) | relative viability ([2]; first compound 0.253 µM) | relative viability ([2]; first compound 0.8 µM) | relative viability ([2]; first compound 2.53 µM) | relative viability ([2]; first compound 8 µM) | relative viability (Obatoclax + Navitoclax; first compound 0.01 µM) | relative viability (Obatoclax + Navitoclax; first compound 0.03162 µM) | relative viability (Obatoclax + Navitoclax; first compound 0.1 µM) | relative viability (Obatoclax + Navitoclax; first compound 0.3162 µM) | relative viability (Obatoclax + Navitoclax; first compound 1 µM) | relative viability (Obatoclax + Vorinostat; first compound 0.01 µM) | relative viability (Obatoclax + Vorinostat; first compound 0.03162 µM) | relative viability (Obatoclax + Vorinostat; first compound 0.1 µM) | relative viability (Obatoclax + Vorinostat; first compound 0.3162 µM) | relative viability (Obatoclax + Vorinostat; first compound 1 µM)
LOU-NH91 | 0.953 | 1.01 | 0.98 | 0.775 | 0.501 | 0.68 | 0.816 | 0.762 | 0.61 | 0.404 | 0.761 | 0.739 | 0.556 | 0.549 | 0.364 | 0.982 | 0.889 | 0.709 | 0.885 | 0.65
H3255 | 0.95 | 1.09 | 0.975 | 0.886 | 0.391 | 0.753 | 0.735 | 0.772 | 0.593 | 0.182 | 0.517 | 0.544 | 0.681 | 0.537 | 0.438 | 0.975 | 0.719 | – | 0.823 | 0.858
NCI-H1395 | 1 | 1.15 | 1.04 | 0.533 | 0.361 | 1 | 1.07 | 1.03 | 0.602 | 0.289 | 1.2 | 1.13 | 0.949 | 0.865 | 0.69 | 0.996 | 0.643 | 0.642 | 0.635 | 0.596
LC-2-ad | 0.732 | 0.803 | 0.473 | 0.122 | 0.0815 | 0.861 | 0.781 | 0.714 | 0.0868 | 0.0702 | 0.359 | 0.446 | 0.311 | 0.26 | 0.145 | 0.677 | 0.669 | 0.647 | 0.658 | 0.445
NCI-H838 | 0.999 | 1.25 | 0.857 | 0.747 | 0.122 | 1.02 | 1.13 | 0.884 | 0.749 | 0.139 | 1.14 | 1.26 | 1.03 | 0.776 | 0.573 | 0.687 | 0.7 | 0.736 | 0.678 | 0.36
LCLC-97TM1 | 0.185 | 0.205 | 0.204 | 0.165 | 0.112 | 0.225 | 0.288 | 0.191 | 0.146 | 0.111 | 0.38 | 0.439 | 0.387 | 0.346 | 0.474 | 0.633 | 0.792 | 0.77 | 0.589 | 0.494
HCC-15 | 0.908 | 0.967 | 0.853 | 0.469 | 0.149 | 0.856 | 1.03 | 0.828 | 0.494 | 0.0833 | 0.726 | 0.726 | 0.645 | 0.569 | 0.469 | 0.875 | 0.815 | 0.83 | 0.747 | 0.786
CAL-12T | 0.756 | 0.69 | 0.979 | 0.49 | 0.214 | 1.04 | 1.21 | 1.24 | 0.339 | 0.121 | 1.06 | 1.03 | 1.24 | 0.926 | 0.103 | 0.847 | 0.883 | 1.05 | 0.521 | 0.142
NCI-H727 | 0.208 | 0.342 | 0.261 | 0.221 | 0.1 | 0.586 | 0.54 | 0.529 | 0.377 | 0.167 | 0.416 | 0.487 | 0.409 | 0.451 | 0.262 | 1.18 | 1.14 | 1.29 | 1.05 | 1.3
NCI-H2023 | 0.63 | 0.725 | 0.581 | 0.382 | 0.0796 | 0.482 | 0.645 | 0.626 | 0.417 | 0.0558 | 0.96 | 1.02 | 0.911 | 0.906 | 0.612 | 0.489 | 0.613 | 0.632 | 0.553 | 0.376
SW 1573 | 0.737 | 0.78 | 0.607 | 0.502 | 0.124 | 0.886 | 1.07 | 0.785 | 0.499 | 0.124 | 1.04 | 0.788 | 0.989 | 0.937 | 0.267 | 0.791 | 1.04 | 0.792 | 0.429 | 0.169
NCI-H1993 | 0.842 | – | 0.617 | 0.594 | 0.55 | 0.63 | – | 0.581 | 0.61 | 0.493 | 1.04 | 0.816 | 1.03 | 0.867 | 0.982 | 0.907 | 0.847 | 0.857 | 1.08 | 0.812
UMC-11 | 0.937 | 1.03 | 0.934 | 0.508 | 0.133 | 0.948 | 0.963 | 0.404 | 0.13 | 0.103 | 0.315 | 0.311 | 0.316 | 0.299 | 0.111 | 0.39 | 0.439 | 0.375 | 0.407 | 0.288
NCI-H520 | 1.01 | 0.995 | 0.664 | 0.233 | 0.122 | 0.891 | 0.937 | 0.892 | 0.498 | 0.166 | 1.1 | 1.16 | 1.07 | 0.795 | 0.288 | 0.685 | 0.712 | 0.764 | 0.542 | 0.315
NCI-H2085 | 0.796 | 0.95 | 0.931 | 0.502 | 0.289 | 0.874 | 0.952 | 1.07 | 0.741 | 0.301 | 1.14 | 1.11 | 1.13 | 0.704 | 0.728 | 0.748 | 0.776 | 0.669 | 0.787 | 0.342
NCI-H1651 | 0.904 | 1.2 | 0.855 | 0.607 | 0.144 | 0.816 | 0.919 | 1.15 | 0.558 | 0.146 | 1.04 | 0.991 | 0.968 | 0.507 | 0.224 | 0.587 | 0.491 | 0.512 | 0.384 | 0.595
